This is an account of results in patent US9609868B2, “Alkoximino-substituted anthranilic acid diamides as pesticides” (BAYER CROPSCIENCE AKTIENGESELLSCHAFT, priority 2013, dated 2017).

One data set has as its system Musca domestica. The data set can be described thus: Musca domestica test (MUSCDO). It counts as in vivo. On the procedure: Musca domestica-Test (MUSCDO)
(§1) Solvent: dimethyl sulfoxide
(§2) To produce a suitable preparation of active compound, 10 mg of active compound are mixed with 0.5 ml of dimethyl sulfoxide, and the concentrate is diluted with water to the desired concentration.
Vessels containing a sponge treated with sugar solution and the active compound preparation of the desired concentration are populated with 10 adult houseflies (Musca domestica).
After the desired time, the kill in % is determined. 100% means that all of the flies have been killed; 0% means that none of the flies have been killed.

In a further data set the test system is Phaedon cochleariae. The data set can be described thus: Phaedon cochleariae - spray test (PHAECO). Format: in vivo. The conditions noted are these: application rate 100 g/ha, Chinese cabbage leaf disks. The procedure, abridged: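 Active compound in acetone/dimethylformamide with alkylaryl polyglycol ether emulsifier was diluted with emulsifier-containing water to the test concentration and sprayed. After the set period, efficacy was scored as % larvae killed (100% = all beetle larvae dead, 0% = none).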

For a further data set, the system named is Tetranychus urticae. As to the kind of experiment: Tetranychus urticae - spray test, OP-resistant (TETRUR). The note with it: application rate 100 g/ha, bean leaf disks. Format: in vivo. Here is the method: Tetranychus urticae—Spray Test, OP-Resistant (TETRUR)
Solvent: 78.0 parts by weight of acetone • • 1.5 parts by weight of dimethylformamide
Emulsifier: 0.5 parts by weight of alkylaryl polyglycol ether
To produce a suitable active compound preparation, 1 part by weight of active compound is mixed with the stated amounts of solvent and emulsifier, and the concentrate is diluted with emulsifier-containing water to the desired concentration.
Disks of bean leaves (Phaseolus vulgaris) infested with all stages of the greenhouse red spider mite (Tetranychus urticae) are sprayed with an active compound preparation of the desired concentration.
After the desired period of time, the efficacy in % is determined. 100% means that all the spider mites have been killed; 0% means that none of the spider mites have been killed.

The nature of data set [1]: log P by HPLC on reversed-phase column (C18), EEC directive 79/831 Annex V.A8. Format: physicochemical. The conditions noted are these: HPLC reversed-phase C18, 43° C., data refer to the E isomer. On the procedure:
The log P values reported in the tables and Preparation Examples above were determined in accordance with EEC directive 79/831 Annex V.A8 by HPLC (High Performance Liquid Chromatography) using a reversed-phase column (C18). Temperature 43° C. The calibration is effected with unbranched alkan-2-ones (having 3 to 16 carbon atoms), for which the log P values are known.

Another data set deals with Boophilus microplus. As to the kind of experiment: Boophilus microplus - injection test (BOOPMI Inj). The note with it: application rate 20 μg/animal, injection into engorged adult female cattle ticks. It counts as in vivo. Here is the method:
Boophilus microplus—Injection Test (BOOPMI Inj)
as §1
To produce a suitable preparation of active compound, 10 mg of active compound are mixed with 0.5 ml of solvent and the concentrate is diluted with solvent to the desired concentration.
1 μl of the active compound solution is injected into the abdomen of 5 engorged adult female cattle ticks (Boophilus microplus). The animals are transferred into dishes and kept in a climate-controlled room.
The activity is assessed after the desired time by laying of fertile eggs. Eggs which are not visibly fertile are stored in a climate-controlled cabinet until the larvae hatch after about 42 days. An efficacy of 100% means that none of the ticks has laid any fertile eggs; 0% means that all the eggs are fertile.

A further data set concerns Spodoptera frugiperda. As to the kind of experiment: Spodoptera frugiperda - spray test (SPODFR). Format: in vivo. The note with it: application rate 100 g/ha, maize leaf disks. The procedure, abridged:
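Maize leaf disks sprayed with compound in acetone/DMF with alkylaryl polyglycol ether emulsifier, diluted in water to test concentration, then infested with armyworm caterpillars once dry. Efficacy given as % caterpillars killed (100% all, 0% none) after the chosen period.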

For the next data set, the system named is Myzus persicae. As to the kind of experiment: Myzus persicae - spray test (MYZUPE). The conditions noted are these: application rate 100 g/ha, Chinese cabbage leaf disks. It counts as in vivo. Summed up: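 Chinese cabbage leaf disks carrying all stages of green peach aphid were sprayed with compound in acetone/DMF with emulsifier, diluted in water. After the chosen period, efficacy was scored as % aphids killed.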

The subject of another data set is Lucilia cuprina. As to the kind of experiment: Lucilia cuprina test (LUCICU). It counts as in vivo. The conditions noted are these: application rate 100 ppm. On the procedure: Lucilia cuprina-Test (LUCICU)
as §1, §2
About 20 L1 larvae of the Australian sheep blowfly (Lucilia cuprina) are transferred into a test vessel containing minced horsemeat and the active compound preparation of the desired concentration.
After the desired time, the kill in % is determined. 100% means that all the larvae have been killed; 0% means that no larvae have been killed.

As to `CON=Cc1cc(C)c(NC(=O)c2cc(CF)nn2-c2ncccc2Cl)c(C(=O)NC2CC2)c1` [C-42], the “efficacy (kill of adult houseflies)” value in the data set on Musca domestica (application rate 100 ppm) came to 90%. Further, in the data set on Phaedon cochleariae, the “efficacy (beetle larvae killed)” value amounted to 100%. In addition, the “efficacy (spider mites killed)” value with Tetranychus urticae came to 100%. In data set [1] (Table C), this compound gave a log p of 2.38. The “efficacy (no fertile eggs laid)” value in the data set with Boophilus microplus is reported as 100%. Moreover, in the data set on Spodoptera frugiperda, the “efficacy (caterpillars killed)” value was 100%. Further, in the data set with Myzus persicae, the “efficacy (aphids killed)” value is listed as 90%. For the same compound, in the data set with Lucilia cuprina, the “efficacy (kill of L1 larvae)” value came to 100%.
Consider `CCOC(=O)NNC(=O)c1cc(C=NOC)cc(C)c1NC(=O)c1cc(C(F)(F)F)nn1-c1ncccc1Cl` [A-17], for which the “efficacy (kill of adult houseflies)” value with Musca domestica (application rate 20 ppm) is given as 80%. Also, in the data set with Phaedon cochleariae, the “efficacy (beetle larvae killed)” value is 100%. For the same compound, in the data set with Tetranychus urticae, the “efficacy (spider mites killed)” value is 90%. This compound displayed a log p in data set [1] (Table A) of 2.92. For the same compound, in the data set on Boophilus microplus, the “efficacy (no fertile eggs laid)” value is 100%. In the data set with Spodoptera frugiperda, the “efficacy (caterpillars killed)” value was determined as 100%. In addition, the “efficacy (aphids killed)” value with Myzus persicae was 90%. Further, the “efficacy (kill of L1 larvae)” value with Lucilia cuprina worked out at 100%.
Turning to `C#CCOC(=O)NNC(=O)c1cc(C=NOC)cc(C)c1NC(=O)c1cc(C(F)(F)F)nn1-c1ncccc1Cl` [A-22], the “efficacy (kill of adult houseflies)” value with Musca domestica (application rate 20 ppm) turned out to be 100%. In addition, the “efficacy (beetle larvae killed)” value in the data set on Phaedon cochleariae is 100%. In the data set with Tetranychus urticae, the “efficacy (spider mites killed)” value was found to be 100%. The log p in data set [1] (Table A) was determined as 2.86. The “efficacy (no fertile eggs laid)” value in the data set with Boophilus microplus was 100%. For the same compound, the “efficacy (caterpillars killed)” value in the data set on Spodoptera frugiperda came out at 100%. The “efficacy (aphids killed)” value in the data set with Myzus persicae stood at 100%. Further, the “efficacy (kill of L1 larvae)” value in the data set on Lucilia cuprina is 100%.
